Experiments:
ZR-75-1 Tam1 [1] = assay: relative IC50 (midpoint of fitted logistic curve, plateau may be below 50% inhibition; CellTiter-Glo viability); higher = less potent; conditions: 4-OH-tamoxifen in medium 1 µM; 72 h
Description: (§1)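 FIMM FO2B library drugs were plated at 5 concentrations spanning a 10,000-fold range in 384-well plates. Cells were incubated for 72 h at 37 °C and viability was read by CellTiter-Glo, normalised to DMSO (0% inhibition) and 100 µM benzethonium chloride (100% inhibition). IC50 values come from logistic dose-response fits (Breeze pipeline). Tamoxifen-resistant lines and the 'in 1µM tamoxifen' parental arms were tested in medium with 1 µM 4-OH-tamoxifen.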

ZR-75-1 Tam2 [2] = assay: as above; conditions: 4-OH-tamoxifen in medium 1 µM; 72 h
Description: as §1

MCF-7 Tam1 [3] = assay: as above; conditions: 4-OH-tamoxifen in medium 1 µM; 72 h
Description: as §1

T-47D Tam1 [4] = assay: as above; conditions: 4-OH-tamoxifen in medium 1 µM; 72 h
Description: as §1

T-47D [5] = assay: as above; conditions: 72 h
Description: as §1

MCF-7 [6] = assay: as above; conditions: 72 h
Description: as §1

BT-474 Tam1 [7] = assay: as above; conditions: 4-OH-tamoxifen in medium 1 µM; 72 h
Description: as §1

ZR-75-1 [8] = assay: as above; conditions: 72 h
Description: as §1

BT-474 [9] = assay: as above; conditions: 72 h
Description: as §1

ZR-75-1 Tam1 [10] = assay: drug sensitivity score (DSS) (DSS (dimensionless)); higher = more sensitive; extreme values may be limits of the assay; conditions: 4-OH-tamoxifen in medium 1 µM; 72 h
Description: (§2)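 FIMM FO2B library drugs were tested at 5 concentrations (10,000-fold range) for 72 h, with CellTiter-Glo viability normalised to DMSO and benzethonium chloride controls. The Drug Sensitivity Score (DSS) is computed from the fitted logistic dose-response curve (area-based; 0 = inactive). Resistant lines and the 'in 1µM tamoxifen' arms were tested in 1 µM 4-OH-tamoxifen.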

ZR-75-1 Tam2 [11] = assay: as above; conditions: 4-OH-tamoxifen in medium 1 µM; 72 h
Description: as §2

MCF-7 Tam1 [12] = assay: as above; conditions: 4-OH-tamoxifen in medium 1 µM; 72 h
Description: as §2

T-47D Tam1 [13] = assay: as above; conditions: 4-OH-tamoxifen in medium 1 µM; 72 h
Description: as §2

T-47D [14] = assay: as above; conditions: 72 h
Description: as §2

BT-474 Tam2 [15] = assay: as above; conditions: 4-OH-tamoxifen in medium 1 µM; 72 h
Description: as §2

T-47D Tam2 = assay: as above; conditions: 4-OH-tamoxifen in medium 1 µM; 72 h
Description: as §2

MCF-7 [16] = assay: as above; conditions: 72 h
Description: as §2

BT-474 Tam1 [17] = assay: as above; conditions: 4-OH-tamoxifen in medium 1 µM; 72 h
Description: as §2

ZR-75-1 [18] = assay: as above; conditions: 72 h
Description: as §2

BT-474 [19] = assay: as above; conditions: 72 h
Description: as §2

BT-474 Tam2 [20] = assay: relative IC50 (midpoint of fitted logistic curve, plateau may be below 50% inhibition; CellTiter-Glo viability); higher = less potent; conditions: 4-OH-tamoxifen in medium 1 µM; 72 h
Description: as §1

Structure (SMILES) | relative IC50 (ZR-75-1 Tam1 [1]) | relative IC50 (ZR-75-1 Tam2 [2]) | relative IC50 (MCF-7 Tam1 [3]) | relative IC50 (T-47D Tam1 [4]) | relative IC50 (T-47D [5]; 4-OH-tamoxifen in medium 1 µM) | relative IC50 (MCF-7 [6]; 4-OH-tamoxifen in medium 0 µM) | relative IC50 (BT-474 Tam1 [7]) | relative IC50 (ZR-75-1 [8]; 4-OH-tamoxifen in medium 0 µM) | relative IC50 (BT-474 [9]; 4-OH-tamoxifen in medium 0 µM) | drug sensitivity score (ZR-75-1 Tam1 [10]) | drug sensitivity score (ZR-75-1 Tam2 [11]) | drug sensitivity score (MCF-7 Tam1 [12]) | drug sensitivity score (T-47D Tam1 [13]) | drug sensitivity score (T-47D [14]; 4-OH-tamoxifen in medium 0 µM) | drug sensitivity score (T-47D [14]; 4-OH-tamoxifen in medium 1 µM) | drug sensitivity score (BT-474 Tam2 [15]) | drug sensitivity score (T-47D Tam2) | drug sensitivity score (MCF-7 [16]; 4-OH-tamoxifen in medium 0 µM) | drug sensitivity score (MCF-7 [16]; 4-OH-tamoxifen in medium 1 µM) | drug sensitivity score (BT-474 Tam1 [17]) | drug sensitivity score (ZR-75-1 [18]; 4-OH-tamoxifen in medium 0 µM) | drug sensitivity score (ZR-75-1 [18]; 4-OH-tamoxifen in medium 1 µM) | drug sensitivity score (BT-474 [19]; 4-OH-tamoxifen in medium 0 µM) | drug sensitivity score (BT-474 [19]; 4-OH-tamoxifen in medium 1 µM) | relative IC50 (ZR-75-1 [8]; 4-OH-tamoxifen in medium 1 µM) | relative IC50 (BT-474 [9]; 4-OH-tamoxifen in medium 1 µM) | relative IC50 (T-47D [5]; 4-OH-tamoxifen in medium 0 µM) | relative IC50 (BT-474 Tam2 [20]) | relative IC50 (MCF-7 [6]; 4-OH-tamoxifen in medium 1 µM)
Cc1ccc(NC(=O)c2ccc(CN3CCN(C)CC3)cc2)cc1Nc1nccc(-c2cccnc2)n1 [Imatinib] | > 10000 nM | > 10000 nM | > 10000 nM | > 10000 nM | > 10000 nM | > 10000 nM | 4030 nM | > 10000 nM | > 10000 nM | 0 | 0 | 0 | 0 | 0 | 0 | 1.21 | 0.454 | 0 | 0 | 1.97 | 0 | 0.933 | 0 | 0.471 |  |  |  |  | 
NC(=O)c1cccc2cn(-c3ccc([C@@H]4CCCNC4)cc3)nc12 [MK-4827] | > 10000 nM | > 10000 nM | > 10000 nM | > 10000 nM |  |  | 3060 nM |  | > 10000 nM | 0 | 0 | 0 | 0 | 0.34 | 1.04 | 0.615 | 0.764 | 0.385 | 1.11 | 2.21 | 0.0039 | 0 | 0 | 0 | > 10000 nM | > 10000 nM |  |  | 
CC[C@@]1(O)C(=O)OCc2c1cc1n(c2=O)Cc2cc3c(CN(C)C)c(O)ccc3nc2-1 [Topotecan] | 156 nM | 136 nM | > 1000 nM | 100 nM | > 1000 nM |  | > 1000 nM | 95.2 nM | > 1000 nM | 3.45 | 4.55 | 0 | 5.31 | 7.46 | 0 | 0 | 1.16 | 0.567 | 2.53 | 0 | 5.48 | 3.54 | 0 | 0 | 130 nM | > 1000 nM | 77.9 nM | > 1000 nM | 
CC1(C)CCC(c2ccc(Cl)cc2)=C(CN2CCN(c3ccc(C(=O)NS(=O)(=O)c4ccc(N[C@H](CCN5CCOCC5)CSc5ccccc5)c(S(=O)(=O)C(F)(F)F)c4)cc3)CC2)C1 [Navitoclax (ABT-263)] | > 10000 nM | > 10000 nM | > 10000 nM | 326 nM | > 10000 nM |  | 1150 nM | > 10000 nM |  | 0 | 0 | 0 | 14.1 | 0 | 0 | 3.9 | 1.65 | 1.6 | 0.949 | 2.79 | 0 | 0 | 0 | 4.26 | > 10000 nM | 1610 nM | > 10000 nM | 723 nM | 
Cc1ccc(-c2cc(C(F)(F)F)nn2-c2ccc(S(N)(=O)=O)cc2)cc1 [Celecoxib] | > 10000 nM | > 10000 nM | > 10000 nM | > 10000 nM | > 10000 nM |  |  | > 10000 nM | > 10000 nM | 0 | 0 | 0 | 0 | 0 | 0 | 0 | 0.335 | 0.0979 | 0 | 0.0337 | 0 | 0.0083 | 0 | 0 |  | > 10000 nM | > 10000 nM | > 10000 nM | > 10000 nM
CO[C@H]1C[C@@H]2CC[C@@H](C)[C@@](O)(O2)C(=O)C(=O)N2CCCC[C@H]2C(=O)O[C@H]([C@H](C)C[C@@H]2CC[C@@H](O)[C@H](OC)C2)CC(=O)[C@H](C)/C=C(\C)[C@@H](O)[C@@H](OC)C(=O)[C@H](C)C[C@H](C)/C=C/C=C/C=C/1C [Sirolimus (Rapamycin)] | 4.48 nM | 2 nM | > 1000 nM | 5.24 nM |  | 4.79 nM | > 1000 nM | 1.84 nM |  | 8.75 | 12.4 | 0 | 8.59 | 10.6 | 0.392 | 1.85 | 3.53 | 12.7 | 11.1 | 0 | 12.7 | 9.39 | 5.15 | 1.96 | 2.35 nM |  | 1.07 nM |  | 4.86 nM
CN1CCN(CCOc2cc(OC3CCOCC3)c3c(Nc4c(Cl)ccc5c4OCO5)ncnc3c2)CC1 [Saracatinib] | > 10000 nM | > 10000 nM | > 10000 nM | 504 nM | > 10000 nM |  | 1170 nM | > 10000 nM | 2150 nM | 0 | 0 | 0 | 5.37 | 1.32 | 0 | 10.1 | 3.11 | 2.15 | 0.814 | 10.8 | 0 | 0 | 3.72 | 9.8 | > 10000 nM | 1290 nM |  | 1350 nM | 
